Values belong to the compound of their own block, whether it stands above or below them. Activity calls are given as the source filed them. The calls are words filed in the database; no cut-off is given here.
How the values were obtained:
[1] = target: T1, Tyrosine-protein phosphatase non-receptor type 1 (Homo sapiens, UniProt P18031); assay: Inhibition of recombinant PTP1B (unknown origin) assessed as hydrolysis of pNPP to pNP after 30 mins
T1 sequence (P18031 whole entry): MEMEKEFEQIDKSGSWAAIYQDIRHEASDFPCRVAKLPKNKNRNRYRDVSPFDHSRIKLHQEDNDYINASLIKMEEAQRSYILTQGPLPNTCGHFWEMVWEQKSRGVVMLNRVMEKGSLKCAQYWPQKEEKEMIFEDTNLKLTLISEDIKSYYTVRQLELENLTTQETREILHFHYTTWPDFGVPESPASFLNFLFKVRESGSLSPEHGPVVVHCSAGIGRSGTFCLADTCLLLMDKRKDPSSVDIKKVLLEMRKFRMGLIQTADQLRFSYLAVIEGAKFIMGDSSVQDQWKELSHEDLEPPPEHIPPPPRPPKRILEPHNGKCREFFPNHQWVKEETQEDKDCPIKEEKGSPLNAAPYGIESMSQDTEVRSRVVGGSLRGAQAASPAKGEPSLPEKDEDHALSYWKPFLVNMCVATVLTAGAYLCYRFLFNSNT

[2] = target: T2, Tyrosine-protein phosphatase non-receptor type 2 (Homo sapiens, UniProt P17706); assay: Inhibition of TCPTP (unknown origin) assessed as hydrolysis of pNPP to pNP after 30 mins
T2 sequence (P17706 whole entry): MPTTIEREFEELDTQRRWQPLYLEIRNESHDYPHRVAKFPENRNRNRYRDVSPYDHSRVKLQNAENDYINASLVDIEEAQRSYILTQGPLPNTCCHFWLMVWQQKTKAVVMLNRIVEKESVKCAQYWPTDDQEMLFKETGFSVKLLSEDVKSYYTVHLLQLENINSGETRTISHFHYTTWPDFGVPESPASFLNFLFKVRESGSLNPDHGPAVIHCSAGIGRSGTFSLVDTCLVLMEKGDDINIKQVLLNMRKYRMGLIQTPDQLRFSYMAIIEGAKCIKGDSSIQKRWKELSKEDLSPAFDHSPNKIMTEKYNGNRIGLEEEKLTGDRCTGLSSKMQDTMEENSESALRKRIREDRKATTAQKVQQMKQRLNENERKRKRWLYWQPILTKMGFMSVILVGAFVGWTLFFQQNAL

[3] = target: T3, Tyrosine-protein phosphatase non-receptor type 6 (Homo sapiens, UniProt P29350); assay: Inhibition of SHP1 (unknown origin) assessed as hydrolysis of pNPP to pNP after 30 mins
T3 sequence (P29350 whole entry): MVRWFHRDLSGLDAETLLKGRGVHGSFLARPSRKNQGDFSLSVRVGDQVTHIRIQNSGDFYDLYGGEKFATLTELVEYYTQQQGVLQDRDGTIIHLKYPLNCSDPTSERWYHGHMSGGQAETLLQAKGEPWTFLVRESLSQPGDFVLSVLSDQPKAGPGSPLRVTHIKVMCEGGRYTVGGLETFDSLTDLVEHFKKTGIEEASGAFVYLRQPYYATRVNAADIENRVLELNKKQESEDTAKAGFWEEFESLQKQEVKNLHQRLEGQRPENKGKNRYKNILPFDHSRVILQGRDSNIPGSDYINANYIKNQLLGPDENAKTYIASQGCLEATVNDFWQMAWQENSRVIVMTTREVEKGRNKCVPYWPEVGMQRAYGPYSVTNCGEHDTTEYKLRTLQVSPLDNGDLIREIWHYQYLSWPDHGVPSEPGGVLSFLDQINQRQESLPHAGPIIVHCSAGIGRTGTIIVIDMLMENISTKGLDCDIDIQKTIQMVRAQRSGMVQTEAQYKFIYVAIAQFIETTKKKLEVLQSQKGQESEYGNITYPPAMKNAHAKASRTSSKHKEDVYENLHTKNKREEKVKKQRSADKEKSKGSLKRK

Homo sapiens [4] = species on record: Homo sapiens; assay: Selectivity ratio of IC50 for TCPTP (unknown origin) to IC50 for PTP1B (unknown origin)
Homo sapiens [5] = species on record: Homo sapiens; assay: Selectivity ratio of IC50 for SHP1 (unknown origin) to IC50 for PTP1B (unknown origin)
3T3-L1 = assay: Inhibition of PTP1B in IRbeta expressing mouse 3T3L1 cells assessed as increase in phosphorylation level of IRbeta at 15 uM and 30 uM prior to insulin stimulation by SDS-PAGE analysis; format: cell-based
CHO = assay: Inhibition of PTP1B in CHO cells transfected with human IRbeta expressing plasmid assessed as increase in phosphorylation level of IRbeta at 15 uM and 30 uM incubated for 4 hrs prior to insulin stimulation for 10 mins by SDS-PAGE analysis; format: cell-based; details: Cricetulus griseus
Homo sapiens [6] = species on record: Homo sapiens; assay: Increase in insulin-stimulated glucose uptake in differentiated human skeletal muscle cells preincubated for 4 hrs followed by insulin stimulation for 10 mins and addition of 2-NBDG measured after 30 mins by 2-NBDG-based fluorescence analysis; format: functional
L6 [7] = assay: Increase in insulin stimulated glucose uptake in differentiated rat L6 myotube at 5 uM preincubated for 4 hrs followed by insulin stimulation for 10 mins and addition of 2-NBDG measured after 30 mins by 2-NBDG-based fluorescence analysis; format: functional
L6 [8] = assay: Increase in insulin stimulated glucose uptake in differentiated rat L6 myotube at 10 uM preincubated for 4 hrs followed by insulin stimulation for 10 mins and addition of 2-NBDG measured after 30 mins by 2-NBDG-based fluorescence analysis; format: functional
[9] = target: T4, Tyrosine-protein phosphatase non-receptor type 11 (Homo sapiens) (UniProt Q06124); assay: Inhibition of SHP2 (unknown origin) assessed as hydrolysis of pNPP to pNP at 25 uM after 30 mins
T4 sequence (whole entry): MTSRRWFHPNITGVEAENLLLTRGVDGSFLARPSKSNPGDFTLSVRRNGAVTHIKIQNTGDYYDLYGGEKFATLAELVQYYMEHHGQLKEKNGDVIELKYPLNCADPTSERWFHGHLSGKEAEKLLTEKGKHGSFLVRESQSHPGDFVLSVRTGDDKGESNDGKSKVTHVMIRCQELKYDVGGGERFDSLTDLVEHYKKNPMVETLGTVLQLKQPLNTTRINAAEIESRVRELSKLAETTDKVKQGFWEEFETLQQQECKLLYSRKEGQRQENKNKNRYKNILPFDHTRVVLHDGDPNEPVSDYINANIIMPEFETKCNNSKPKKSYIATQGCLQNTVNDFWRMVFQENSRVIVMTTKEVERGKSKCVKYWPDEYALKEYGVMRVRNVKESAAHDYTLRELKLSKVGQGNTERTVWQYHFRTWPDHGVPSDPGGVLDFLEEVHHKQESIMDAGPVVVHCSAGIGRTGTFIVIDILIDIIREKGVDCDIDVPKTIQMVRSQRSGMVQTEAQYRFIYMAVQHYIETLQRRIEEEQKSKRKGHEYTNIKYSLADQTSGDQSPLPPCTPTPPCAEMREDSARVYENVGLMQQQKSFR

[10] = target: Receptor-type tyrosine-protein phosphatase F (Homo sapiens) (UniProt P10586); assay: Inhibition of LAR (unknown origin) assessed as hydrolysis of pNPP to pNP at 25 uM after 30 mins
Sequence of Receptor-type tyrosine-protein phosphatase F (Homo sapiens) (P10586 whole entry): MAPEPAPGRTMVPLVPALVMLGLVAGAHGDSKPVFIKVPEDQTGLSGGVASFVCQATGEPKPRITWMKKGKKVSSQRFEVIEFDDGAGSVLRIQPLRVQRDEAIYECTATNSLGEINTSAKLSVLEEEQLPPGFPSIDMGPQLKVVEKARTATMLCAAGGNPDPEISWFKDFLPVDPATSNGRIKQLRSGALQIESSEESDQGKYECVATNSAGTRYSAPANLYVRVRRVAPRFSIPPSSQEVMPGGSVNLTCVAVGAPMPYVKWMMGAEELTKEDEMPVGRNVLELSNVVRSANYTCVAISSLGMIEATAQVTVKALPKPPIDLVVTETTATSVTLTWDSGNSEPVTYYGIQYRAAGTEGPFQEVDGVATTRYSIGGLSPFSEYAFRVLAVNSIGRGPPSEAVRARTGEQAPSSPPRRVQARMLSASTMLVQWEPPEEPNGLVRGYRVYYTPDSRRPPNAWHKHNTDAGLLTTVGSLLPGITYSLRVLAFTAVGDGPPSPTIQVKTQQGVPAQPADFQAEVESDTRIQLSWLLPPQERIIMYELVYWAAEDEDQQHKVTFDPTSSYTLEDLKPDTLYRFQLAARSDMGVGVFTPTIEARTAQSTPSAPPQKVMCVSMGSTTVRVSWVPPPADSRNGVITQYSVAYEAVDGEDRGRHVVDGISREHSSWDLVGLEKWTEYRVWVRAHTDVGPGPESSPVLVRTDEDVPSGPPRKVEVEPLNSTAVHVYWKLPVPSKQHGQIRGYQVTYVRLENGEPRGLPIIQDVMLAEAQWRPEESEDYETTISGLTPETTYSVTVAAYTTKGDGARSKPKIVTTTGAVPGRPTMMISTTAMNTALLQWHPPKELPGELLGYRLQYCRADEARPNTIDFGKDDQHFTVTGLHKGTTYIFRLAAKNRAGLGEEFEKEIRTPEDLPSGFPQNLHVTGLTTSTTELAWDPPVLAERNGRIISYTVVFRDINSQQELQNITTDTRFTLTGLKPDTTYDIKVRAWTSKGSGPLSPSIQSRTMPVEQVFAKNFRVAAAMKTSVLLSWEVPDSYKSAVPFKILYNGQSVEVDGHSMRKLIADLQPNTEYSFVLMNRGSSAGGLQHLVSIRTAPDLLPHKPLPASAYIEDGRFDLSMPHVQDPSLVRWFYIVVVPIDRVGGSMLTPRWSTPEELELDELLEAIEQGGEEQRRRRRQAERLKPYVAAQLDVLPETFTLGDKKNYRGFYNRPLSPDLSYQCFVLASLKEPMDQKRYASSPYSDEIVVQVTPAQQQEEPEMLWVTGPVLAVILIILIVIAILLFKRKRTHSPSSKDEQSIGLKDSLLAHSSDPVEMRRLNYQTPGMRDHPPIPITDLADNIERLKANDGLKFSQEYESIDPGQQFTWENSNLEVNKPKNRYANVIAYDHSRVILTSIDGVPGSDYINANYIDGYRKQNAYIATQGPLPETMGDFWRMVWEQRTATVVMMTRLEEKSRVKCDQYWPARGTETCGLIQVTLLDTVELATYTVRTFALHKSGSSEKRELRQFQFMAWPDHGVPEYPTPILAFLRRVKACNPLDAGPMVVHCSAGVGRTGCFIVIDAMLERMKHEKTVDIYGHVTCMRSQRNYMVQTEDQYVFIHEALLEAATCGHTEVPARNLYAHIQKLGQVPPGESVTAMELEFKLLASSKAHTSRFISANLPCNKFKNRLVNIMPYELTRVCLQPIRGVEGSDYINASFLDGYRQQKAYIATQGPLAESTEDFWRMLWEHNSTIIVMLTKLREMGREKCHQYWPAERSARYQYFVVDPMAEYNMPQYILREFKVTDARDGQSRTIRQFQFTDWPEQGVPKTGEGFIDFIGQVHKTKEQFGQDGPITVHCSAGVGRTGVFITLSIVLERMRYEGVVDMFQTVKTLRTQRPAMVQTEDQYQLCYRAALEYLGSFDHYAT

[11] = target: T5, Tyrosine-protein phosphatase non-receptor type 1 (Homo sapiens) (UniProt P18031); assay: Inhibition of recombinant PTP1B (unknown origin) assessed as hydrolysis of pNPP to pNP at 25 uM after 30 mins
T5 sequence (whole entry): T1 sequence (P18031 whole entry)

[12] = target: T6, Tyrosine-protein phosphatase non-receptor type 2 (Homo sapiens) (UniProt P17706); assay: Inhibition of TCPTP (unknown origin) assessed as hydrolysis of pNPP to pNP at 25 uM after 30 mins
T6 sequence (whole entry): T2 sequence (P17706 whole entry)

[13] = target: T3, Tyrosine-protein phosphatase non-receptor type 6; assay: Inhibition of SHP1 (unknown origin) assessed as hydrolysis of pNPP to pNP at 25 uM after 30 mins
[14] = target: T7, Tyrosine-protein phosphatase non-receptor type 11 (Homo sapiens, UniProt Q06124); assay: Inhibition of SHP2 (unknown origin) assessed as hydrolysis of pNPP to pNP after 30 mins
T7 sequence (Q06124 whole entry): T4 sequence (whole entry)

Compound: CCS(=O)(=O)N(CC(=O)OC)c1ccc(CN(c2ccc(CN(Cc3cccc(Cl)c3)S(C)(=O)=O)cc2)S(=O)(=O)Cc2ccccc2)cc1
inhibition [11]: < 50%

Compound: COC(=O)CN(c1ccc(CN(c2ccc(N(Cc3cccc(Cl)c3)S(C)(=O)=O)cc2)S(=O)(=O)Cc2ccccc2)cc1)S(C)(=O)=O
inhibition [11]: < 50%

Compound: COC(=O)CN(c1ccc(CN(c2ccc(CN(Cc3ccc(C)cc3)S(C)(=O)=O)cc2)S(=O)(=O)Cc2ccccc2)cc1)S(C)(=O)=O
IC50 [1]: 20300 nM

Compound: COC(=O)CN(c1ccc(CN(c2ccc(CN(Cc3ccccc3)S(C)(=O)=O)cc2)S(=O)(=O)c2ccccc2)cc1)S(C)(=O)=O
IC50 [1]: 16100 nM

Compound: COC(=O)CN(c1ccc(CN(c2ccc(CN(Cc3ccccc3)S(C)(=O)=O)cc2)S(=O)(=O)Cc2ccccc2)cc1)S(C)(=O)=O
inhibition [11]: < 50%

Further lines, with some results ahead:

IC50 [1]: 902 nM
Compound: CCCOc1ccc(S(=O)(=O)N(Cc2ccc(N(CC(=O)OC)S(C)(=O)=O)cc2)c2ccc(CN(Cc3ccccc3)S(C)(=O)=O)cc2)cc1

IC50 [1]: 222 nM
IC50 [2]: 1860 nM
IC50 [3]: 2310 nM
Ratio IC50 (Homo sapiens [4]): 8
Ratio IC50 (Homo sapiens [5]): 10
inhibition [9]: < 50%
inhibition [10]: < 50%
Compound: CCOc1ccc(S(=O)(=O)N(Cc2ccc(N(CC(=O)OC)S(C)(=O)=O)cc2)c2ccc(CN(Cc3ccccc3)S(C)(=O)=O)cc2)cc1
inhibition (3T3-L1): Active
inhibition (CHO): Active
Activity (Homo sapiens [6]): Dose-dependent effect
Activity (L6 [7]): 23.3%
Activity (L6 [8]): 29.3%

IC50 [1]: 346 nM
inhibition [12]: < 50%
inhibition [13]: < 50%
inhibition [9]: < 50%
inhibition [10]: < 50%
Compound: COC(=O)CN(c1ccc(CN(c2ccc(CN(Cc3ccccc3)S(C)(=O)=O)cc2)S(=O)(=O)c2ccc(OC)cc2)cc1)S(C)(=O)=O

IC50 [1]: 470 nM
IC50 [2]: 1920 nM
IC50 [3]: 11400 nM
inhibition [9]: < 50%
inhibition [10]: < 50%
Compound: CCOc1ccc(S(=O)(=O)Nc2ccc(N(Cc3ccc(N(CC(=O)OC)S(=O)(=O)CC)cc3)S(=O)(=O)Cc3ccccc3)cc2)cc1

IC50 [1]: 896 nM
Compound: CCCCOc1ccc(S(=O)(=O)N(Cc2ccc(N(CC(=O)OC)S(C)(=O)=O)cc2)c2ccc(CN(Cc3ccccc3)S(C)(=O)=O)cc2)cc1

IC50 [1]: 1710 nM
Compound: CCCCOc1ccc(S(=O)(=O)N(Cc2ccc(N(CC(=O)OC)S(C)(=O)=O)cc2)c2ccc(NS(=O)(=O)Cc3ccccc3)cc2)cc1

IC50 [1]: 492 nM
IC50 [3]: 9610 nM
IC50 [14]: 11600 nM
Ratio IC50 (Homo sapiens [5]): 20
inhibition [12]: < 50%
inhibition [10]: < 50%
Compound: COC(=O)CN(c1ccc(CN(c2ccc(N(Cc3ccccc3)S(C)(=O)=O)cc2)S(=O)(=O)Cc2ccccc2)cc1)S(C)(=O)=O
